Reference: PMC6277767, “Broad and Region-Specific Impacts of the Synthetic Cannabinoid CP 55,940 in Adolescent and Adult Female Mouse Brains” (Frontiers in Molecular Neuroscience, 2018)

Tested on: CD1 female mouse brain lipidome
Assay: Brain-region lipid levels (HPLC/MS/MS lipidomics) 2 h after single i.p. 3 mg/kg CP 55,940 vs vehicle
Type: in vivo
Set-up: N-arachidonoyl phenylalanine level, Mean / N-stearoyl tryptophan level, Mean / N-stearoyl proline level, Mean / N-stearoyl leucine level, Mean / N-stearoyl phenylalanine level, Mean / N-stearoyl serine level, Mean / N-stearoyl methionine level, Mean: unit: moles per gram
Settings: midbrain
Experimental: The Bloomington Institutional Animal Care and Use Committee of Indiana University reviewed and approved the animal procedures. Female mice from the CD1 strain were utilized to match our study examining THC’s effects on the brain lipidome ([Leishman et al., 2018]). Mice were given a single i.p. injection of either 3 mg/kg CP or 1:1:18 cremophor:ethanol:saline vehicle (please refer to the section “3 mg/kg CP Is Relevant for Synthetic Cannabinoid Abuse and Has Stronger Effects on the Female Mouse Brain Lipidome During Adolescence” for a justification of dose and use of female mice). Three different age groups were given injections: PND 35 and PND 50 adolescents, and adult mice (PND 113). At least eight mice in each age group received CP and at least eight received vehicle. Matching the THC study time course ([Leishman et al., 2018]), mice were sacrificed via rapid decapitation 2 h after injection. Brains were immediately removed and flash-frozen in liquid nitrogen, and then stored at -80°C until dissections were performed. Brains were dissected on an ice-cold dissection plate into the following regions: STR, HIPP, CER, THAL, CTX, HYP, MID, and STEM. These abbreviations for these brain areas will be used exclusively when discussing the results generated by these specific dissections. Each dissected area was immediately placed in liquid nitrogen and then stored at -80°C until used for lipid extraction.
Tissue extracts were performed as previously described ([Bradshaw et al., 2006]; [Stuart et al., 2013]; [Raboune et al., 2014]; [Leishman et al., 2016a],[b], [2017], [2018]). First, samples were shock frozen in liquid nitrogen, weighed, and transferred to a centrifuge tube. The mass of the largest sample was multiplied by 50 to determine how many milliliters of HPLC-grade methanol (Fisher, Fair Lawn, NJ, United States) to add. Then, samples were spiked with 500 pmol deuterium-labeled NAGly (d8NAGly; Cayman Chemical, Ann Arbor, MI, United States). Samples were placed on ice in darkness for 2 h then individually homogenized and centrifuged at 19,000 × g for 20 min at 20°C. Supernatants were diluted with HPLC water (purified in house) to make a solution of 75% water, 25% supernatant. Lipids were partially purified on C18 solid phase extraction columns (Agilent, Palo Alto, CA, United States). A series of four elutions with 1.5 mL of 60%, 75%, 85%, and 100% methanol were collected ([Stuart et al., 2013]; [Leishman et al., 2016a],[b], [2018]).
As previously described ([Bradshaw et al., 2006]; [Tan et al., 2006]; [Smoum et al., 2010]; [Stuart et al., 2013]; [Tortoriello et al., 2013]; [Raboune et al., 2014]; [Leishman et al., 2016a],[b], [2017], [2018]), samples were analyzed using an Applied Biosystems API 3000 triple quadrupole mass spectrometer with electrospray ionization (Foster City, CA, United States). Using an Agilent XDB-C18 reversed phase analytical column and optimized mobile phase gradients, 20 μL from each elution were chromatographed. Two Shimadzu 10ADvp pumps (Columbia, MD, United States) provided the pressure for gradient elution. Mobile phase A: 20% methanol, 80% water (v/v) and 1 mM ammonium acetate (Sigma, St. Louis, MO, United States). Mobile phase B: 100% methanol, 1 mM ammonium acetate. Every method run began with 0% mobile phase B, reached 100% mobile phase B flowing at 0.2 mL/min, and gradually returned to 0% mobile phase B.
This screening library will be referred to as the lipidome when discussing data from this study. HPLC/MS/MS data were analyzed using Analyst software (Applied Biosystems) ([Bradshaw et al., 2006]; [Tan et al., 2006]; [Stuart et al., 2013]; [Tortoriello et al., 2013]; [Raboune et al., 2014]; [Leishman et al., 2016a],[b], [2017], [2018]). Chromatograms (Supplementary Figure 3) were generated by determining the retention time of analytes from the analytical column with a [M-1] or [M+1] parent peak and a fragmentation peak corresponding to the programmed values. […]

[1] = PND 50 female mice, 3mg/kg CP 55,940
[2] = PND 35 WT adolescent female mice, 3 mg/kg

CCCCCCC(C)(C)c1ccc([C@@H]2C[C@H](O)CC[C@H]2CCCO)c(O)c1 [CP 55,940]
N-linoleoyl serine level, Mean [1]: 6.73E-11
N-linoleoyl tryptophan level, Mean [1]: BDL
N-linoleoyl tyrosine level, Mean [1]: BDL
N-linoleoyl valine level, Mean [1]: BDL
N-nervonoyl valine level, Mean [1]: BDL
N-oleoyl GABA level, Mean [1]: 5.62E-12
N-oleoyl alanine level, Mean [1]: 6.9E-13
N-oleoyl dopamine level, Mean [1]: BDL
N-oleoyl ethanolamine level, Mean [1]: 1.01E-10
N-oleoyl glycine level, Mean [1]: 3.06E-12
N-oleoyl leucine level, Mean [1]: 5.64E-13
N-oleoyl methionine level, Mean [1]: 3.18E-13
N-oleoyl phenylalanine level, Mean [1]: 1.15E-12
N-oleoyl proline level, Mean [1]: BDL
N-oleoyl serine level, Mean [1]: 1.24E-10
N-oleoyl tryptophan level, Mean [1]: BDL
N-oleoyl tyrosine level, Mean [1]: 3.77E-13
N-oleoyl valine level, Mean [1]: 6.01E-14
N-palmitoyl GABA level, Mean [1]: 1.3E-11
N-palmitoyl alanine level, Mean [1]: 1.18E-12
N-palmitoyl ethanolamine level, Mean [1]: 7.69E-11
N-palmitoyl glycine level, Mean [1]: 1.39E-11
N-palmitoyl leucine level, Mean [1]: 1.38E-12
N-palmitoyl methionine level, Mean [1]: 1.13E-12
N-palmitoyl phenylalanine level, Mean [1]: 1.94E-12
N-palmitoyl proline level, Mean [1]: BDL
N-palmitoyl serine level, Mean [1]: 1.74E-11
N-palmitoyl tryptophan level, Mean [1]: BDL
N-palmitoyl tyrosine level, Mean [1]: 8.39E-13
N-palmitoyl valine level, Mean [1]: 3.48E-13
N-stearoyl GABA level, Mean [1]: 1.21E-11
N-stearoyl alanine level, Mean [1]: 3.21E-13
N-stearoyl ethanolamine level, Mean [1]: 3.26E-11
N-stearoyl glycine level, Mean [1]: 1.13E-12
N-stearoyl leucine level, Mean [1]: 7.66E-13
N-stearoyl methionine level, Mean [1]: 1.11E-12
N-stearoyl phenylalanine level, Mean [1]: 1.62E-12
N-stearoyl proline level, Mean [1]: BDL
N-stearoyl serine level, Mean [1]: 3.85E-11
N-stearoyl tryptophan level, Mean [1]: BDL
N-stearoyl tyrosine level, Mean [1]: 1.16E-13
Oleic acid level, Mean [1]: 3.11E-10
PGE2 level, Mean [1]: 1.09E-10
PhosphoLEA level, Mean [1]: PISSR
THC level, Mean [1]: BDL
2-arachidonoyl glycerol level, Mean [2]: 3.74E-10
2-linoleoyl glycerol level, Mean [2]: 1.59E-10
2-oleoyl glycerol level, Mean [2]: 1.88E-09
2-palmitoyl glycerol level, Mean [2]: 4.69E-10
6-ketoPGF1α level, Mean [2]: 2.09E-11
Arachidonic acid level, Mean [2]: 1.63E-09
Linoleic acid level, Mean [2]: 5.14E-10
N- stearoyl valine level, Mean [2]: 1.32E-12
N-arachidonoyl GABA level, Mean [2]: 1.53E-11
N-arachidonoyl alanine level, Mean [2]: 8.2E-12
N-arachidonoyl ethanolamine level, Mean [2]: 2.18E-11
N-arachidonoyl glycine level, Mean [2]: 4.42E-11
N-arachidonoyl methionine level, Mean [2]: 1.48E-12
N-arachidonoyl phenylalanine level, Mean [2]: 1.53E-12
N-arachidonoyl serine level, Mean [2]: 6.81E-12
N-arachidonoyl taurine level, Mean [2]: 3.84E-11
N-arachidonoyl tyrosine level, Mean [2]: 1.5E-12
N-docosahexaenoyl GABA level, Mean [2]: 2.08E-12
N-docosahexaenoyl alanine level, Mean [2]: 3.78E-12
N-docosahexaenoyl ethanolamine level, Mean [2]: 3.99E-11
N-docosahexaenoyl glycine level, Mean [2]: 1.87E-11
N-docosahexaenoyl leucine level, Mean [2]: 7.41E-13
N-docosahexaenoyl methionine level, Mean [2]: 4.7E-13
N-docosahexaenoyl phenylalanine level, Mean [2]: 1.08E-12
N-docosahexaenoyl serine level, Mean [2]: 2.39E-11
N-docosahexaenoyl tyrosine level, Mean [2]: 1.6E-12
N-docosahexaenoyl valine level, Mean [2]: 3.26E-13
N-linoleoyl GABA level, Mean [2]: 7.43E-13
N-linoleoyl alanine level, Mean [2]: 1.52E-12
N-linoleoyl ethanolamine level, Mean [2]: 3.78E-11
N-linoleoyl glycine level, Mean [2]: 4.58E-12
N-linoleoyl leucine level, Mean [2]: 3.56E-13
N-linoleoyl phenylalanine level, Mean [2]: 2.21E-13
N-linoleoyl serine level, Mean [2]: 5.04E-11
N-oleoyl GABA level, Mean [2]: 4E-12
N-oleoyl alanine level, Mean [2]: 7.02E-12
N-oleoyl ethanolamine level, Mean [2]: 1.94E-10
N-oleoyl glycine level, Mean [2]: 2.31E-11
N-oleoyl leucine level, Mean [2]: 1.53E-12
N-oleoyl methionine level, Mean [2]: 1.46E-12
N-oleoyl phenylalanine level, Mean [2]: 1.6E-12
N-oleoyl serine level, Mean [2]: 2.91E-10
N-oleoyl tryptophan level, Mean [2]: 1.39E-13
N-oleoyl tyrosine level, Mean [2]: 1.05E-12
N-oleoyl valine level, Mean [2]: 1.38E-12
N-palmitoyl GABA level, Mean [2]: 1.05E-11
N-palmitoyl alanine level, Mean [2]: 1.05E-11
N-palmitoyl ethanolamine level, Mean [2]: 9.08E-11
N-palmitoyl glycine level, Mean [2]: 4.59E-11
N-palmitoyl leucine level, Mean [2]: 3.23E-12
N-palmitoyl methionine level, Mean [2]: 2.56E-12
N-palmitoyl phenylalanine level, Mean [2]: 3.04E-12
N-palmitoyl proline level, Mean [2]: 9.03E-13
N-palmitoyl serine level, Mean [2]: 9.45E-11
N-palmitoyl tryptophan level, Mean [2]: 4.42E-13
N-palmitoyl tyrosine level, Mean [2]: 2.19E-12
N-palmitoyl valine level, Mean [2]: 2.86E-12
